Like-named read-outs stand apart in the source and are kept apart here.
Assays:
[1] = system: T1, DHFR in MDA-MB-468 lysates; test: Lysate cellular thermal shift assay (CETSA) for DHFR; assay type: binding, Human; settings: 10 μM, MDA-MB-468 lysate, 45 °C for 3 min, DMSO at 37 °C = 100%
T1 construct: reactions containing 55 μg MDA-MB-468 lysate; endogenous in cells; host or cells: MDA-MB-468
Experimental: Trypsinized MDA-MB-468 cells were harvested by centrifugation at 200× g for 5 min and washed with PBS supplemented with EDTA-free PIC (Roche) and flash frozen for storage at −80 °C. Cells were lysed by resuspension in 60 μL PBS/PIC per 1 × 10^6 cells. Cells were lysed by three freeze-thaw cycles, where cells were frozen in an ethanol/dry ice bath for 3 min, immediately followed by incubation in a 37 °C water bath for 3 min. The insoluble fraction was removed by centrifugation at 20,000× g for 20 min at 4 °C. The supernatant containing the soluble lysate was removed and saved for subsequent steps.
After incubation, each reaction was transferred to a 1.5 mL tube and centrifuged at 20,000× g for 20 min at 4 °C to remove the insoluble proteins. After centrifugation, 18 μL of supernatant was carefully removed from each reaction, without disturbing any pelleted aggregates, and added to 4.5 μL of 5× SDS-PAGE loading buffer. 11 μL of each reaction was loaded onto a gel in duplicate, and proteins were detected by Western blot (as described below). Resulting band densities were fit to the Boltzmann equation to determine the melting temperature (Tm):(3) y=Bottom+Top−Bottom/1+e^Tm−x/Slope
To rescue the thermal degradation of DHFR by inhibitors, samples containing 10 μM inhibitor, 55 μg lysate, and 1% DMSO in a total volume of 28 μL in DHFR buffer were prepared in PCR tubes and incubated at room temperature for 20 min. Two DMSO-only controls were also prepared. Reactions containing inhibitors were then incubated at 45 °C for 3 min. One DMSO-only control was also heated at 45 °C for 3 min, and the other control was heated at 37 °C for 3 min. The soluble protein fraction was separated from the insoluble proteins by centrifugation, and proteins were separated by SDS-PAGE, as described above, and analyzed via Western blot, as described below. Each experiment was repeated 3 times.
Proteins were electrophoretically separated on a 10% gel, and proteins were transferred to a methanol-activated PVDF membrane using the Trans-Blot Turbo transfer system (Bio-Rad) for 7 min at 1.3 A and 25 V in Trans-Blot Turbo transfer buffer (Bio-Rad). Membranes were blocked with 5% skim milk w/v in TBS-T (20 mM Tris, 150 mM NaCl, 0.05% Tween-20) for 1 h at room temperature. […] The horseradish peroxidase (HRP)-linked anti-mouse IgG secondary antibody (NA931, Cytiva; 1:3000) was added for 1 h at room temperature in 5% skim milk w/v in TBS-T. Signal was detected by adding Immobilon Forte Western HRP Substrate (Millipore), and chemiluminescence was captured on a Sapphire Biomolecular Imager (Azure Biosystems). Band densities were determined using ImageJ (Fiji). The band intensity of DHFR was normalized to the thermostable loading control SOD1 [22].

MDA-MB-468 cells = test: Resazurin viability assay with or without folinic acid, MDA-MB-468; assay type: cell-based, Human; settings: 72 h; for Rescue of viability impairment by folinic acid: MDA-MB-468, 10 μM ± 300 μg/mL FA
Experimental: (§1) The incorporation and metabolism of resazurin to resorufin was used to monitor cell viability. MDA-MB-468, MCF7, and MDA-MB-231 cells were grown in 96-well plates with a total of 5000 cells per well in a total volume of 180 μL for 24 h, as described above. After 24 h of growth, cells were treated with increasing concentrations of compounds (0.0457–100 μM) for 72 h. A vehicle control was also performed. […] The volume of treatment added to each well was 20 μL. For folinic acid rescue experiments, 5000 cells were treated with 10 μM compound with or without 300 μg/mL folinic acid (Supelco). After 72 h of treatment, resazurin was added to a final concentration of 44 μM, and cells were incubated for an additional 4 h at 37 °C. The fluorescence of resorufin was monitored on a Synergy MX microplate reader (BioTek) using an excitation wavelength of 540 nm and an emission wavelength of 600 nm. Percent viability relative to the DMSO control was determined. Each treatment was performed in triplicate, and each individual experiment was repeated three times (n = 3).

leukemia = system: leukemia; set-up: method as in PMID 5479856, PMID 5479852, PMID 5241406; settings: early studies in the 1970s; cited from earlier work
MDA-MB-231 cells = test: Resazurin viability assay with or without folinic acid, MDA-MB-231; assay type: cell-based, Human; settings: 72 h
Experimental: as §1

[2] = system: MDA-MB468, MDA-MB-231, and MCF-7 breast cancer cell lines; test: Dose-response viability in breast cancer cell lines (statements not split by line); assay type: cell-based, Human; settings: 0–100 μM, 72 h
Experimental: as §1

purified human DHFR = biological target: T2, purified human DHFR (Homo sapiens, UniProt P00374); test: DHFR enzymatic inhibition assay (NADPH absorbance at 340 nm); assay type: biochemical; settings: 137.5 μM DHF, 125 μM NADPH, n = 2
T2 construct: made in house; host or cells: E. coli BL21 (DE3) T1R pRARE2, pNIC-Bsa4 plasmid
T2 sequence (P00374 1-187): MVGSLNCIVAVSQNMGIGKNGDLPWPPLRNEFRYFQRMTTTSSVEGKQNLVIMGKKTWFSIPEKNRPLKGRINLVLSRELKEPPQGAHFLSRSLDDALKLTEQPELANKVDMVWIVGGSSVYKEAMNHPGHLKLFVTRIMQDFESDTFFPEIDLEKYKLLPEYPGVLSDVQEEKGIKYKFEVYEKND
Experimental: Working stocks of each inhibitor were created so that the final concentration of DMSO in each reaction was 2% in a final reaction volume of 100 μL. […] Reactions were prepared on ice in 384-well plates. […] Consumption of NADPH by measuring absorbance at 340 nm was used to monitor the progress of the reaction. Readings were taken every 5 min for 1 h at 37 °C using a Synergy MX microplate reader (BioTek).
Percent inhibition relative to the no-inhibitor control was determined using Equation (1). (1) % Inhibition=A340Inhibitor−A340DMSO Control/A340No DHFR−A340DMSO Control×100
Percent inhibition data were then fit to the four-parameter logistic model (Equation (2)) in GraphPad Prism 9.4.1 to determine half-maximal inhibitory concentrations (IC50):(2) y=Bottom+Top−Bottom/1+IC50/x^Hill slope where y represents the percent inhibition, x represents the concentration of inhibitor (μM), the bottom and top represent the bottom and top plateaus, and the Hill slope represents the slope factor. Each experiment contained duplicates of each sample, and each experiment was performed 2 times (n = 2). An ordinary one-way ANOVA was used to test for statistical significance between treatments.

Row | SMILES | Normalized Band Density (%) of soluble DHFR [1] | Normalized Band Density (%) of soluble DHFR ([1]; listed as Pyrimethamine) [%] | Rescue of viability impairment by folinic acid (MDA-MB-468 cells) | Normalized Band Density (%) of soluble DHFR ([1]; listed as Cycloguanil) [%] | Anti-leukemic activity in vivo (leukemia) | Relative Viability (%) – Inhibitor + FA Treatment (MDA-MB-231 cells; MDA-MB-231, 10 μM + 300 μg/mL folinic acid) [%] | Rescue of viability impairment by folinic acid (MDA-MB-231 cells; MDA-MB-231, 10 μM ± 300 μg/mL FA) | Relative Viability (%) – Inhibitor Alone (MDA-MB-231 cells; MDA-MB-231, 10 μM, relative to DMSO) [%] | Phenotypic response in viability dose-response [2] | IC50 (purified human DHFR; 200 nM DHFR, read-out: IC50) [nM] | IC50 (purified human DHFR; IC50, 200 nM DHFR) [nM] | Relative Viability (%) – Inhibitor + FA Treatment (MDA-MB-468 cells; MDA-MB-468, 10 μM + 300 μg/mL folinic acid) [%] | Relative Viability (%) – Inhibitor Alone (MDA-MB-468 cells; MDA-MB-468, 10 μM, relative to DMSO) [%]
1 | CCc1nc(N)nc(N)c1-c1ccc(Cl)cc1 [Pyr, Pyrimethamine] | greater than 100% | 104.12 ± 33.5 | statistically significant rescue |  |  |  |  |  |  |  |  |  | 
2 | CC1(C)N=C(N)N=C(N)N1c1ccc(Cl)cc1 [Cyc, Cycloguanil] | greater than 100% |  |  | 125.67 ± 39.6 |  |  |  |  |  |  |  |  | 
3 | CC1(C)N=C(N)N=C(N)N1c1ccc(CCCCc2ccc(S(=O)(=O)F)cc2)c(Cl)c1 [compound 127159] | 99.96 ± 26.2% |  | rescued in all but MDA-MB-468 cells |  | promising anti-leukemic activity in vivo | 106.42 ± 15.0 | largest amplitude of rescue | 50.08 ± 8.8 | little effect at low concentrations and cytotoxicity at higher concentrations | 750 ± 320 | < 1000 | 77.23 ± 7.2 | 70.45 ± 7.8

Reference: paper PMC9961069 (Metabolites, 2023)
